27 compounds from patent US6407099B1, “Arylpiperidinopropanol and arylpiperazinopropanol derivatives and pharmaceuticals containing the same” (Suntory Limited, priority 1997, dated 2002) can be followed below.

Structures are written as SMILES.

For series [1], the system named is DBA/2N type mice. Kind of series: Audiogenic seizure suppressing effect. Conditions: compound 10 mg/kg, i.p., audio stimulus after 20 minutes, seizure score; for inhibition in vivo at 10 mg/kg: Mus musculus, ip, 20 min, read-out: Antiseizure effect (suppression rate %); for Antiseizure effect (suppression rate %): 10 mg/kg. The class given is in vivo. The method, then:
Audiogenic Seizure Suppressing Effect
The audiogenic seizure suppressing effect of the compounds was evaluated by the method of Sarro et al. [G. B. De Sarro et al., Br. J. Pharmacol., 93, 247 (1988)]. That is, the compound dissolved in 10% 2-hydroxypropyl-β-cyclodextrin was administered intraperitoneally to DBA/2N type mice (male, 3 weeks old). After 20 minutes, a supersonic washer was used to apply audio stimulus of at least 90 dB for 1 minute. The wild running (WR), clonic seizures (clonus), tonic seizures (tonus), and the respiratory arrest (RA) were observed. The seizure suppressing effect was evaluated from the rate of suppression of the average value of the seizure score found as 0=no response, 1=WR, 2=clonus, 3=tonus, and 4=RA.

Series [2] is described as follows: Acute toxicity test. Particulars: male, mouse, in vivo, iv, ddY mice, death rate up to 24 hours after administration. The procedure: A pharmaceutical preparation was administered intravenously to ddY mice (male, 6 weeks old). The 50% lethal dosage LD50 of the acute toxicity was calculated by an ordinary method from the death rate up to 24 hours after administration.

Series [3] addresses T1, Dopamine D2 receptor (Rattus norvegicus, UniProt P61169).
T1 construct: membrane fraction prepared from the striatum of Wistar male rats; from tissue; host or cells: rat striatum membrane fraction
Kind of series: Dopamine D2 receptor blocking action ([^3H] raclopride, striatum membrane fraction). The class given is binding, Wistar male rats. Conditions: 1.0 nM [^3H] raclopride, 25° C., 1 hour. The procedure: Dopamine D2 Receptor Blocking Action
57 μl of the membrane fraction prepared from the striatum of Wistar male rats (6 weeks old) was incubated together with the compound and 1.0 nM [^3H] raclopride in a buffer at 25° C. for 1 hour. A GF/C glass filter (0.1% polyethylene imine treatment) was used for B/F separation. A beta plate was used for measurement of the radioactivity to evaluate the effect of the compound.

For series [4], the system named is T-type Ca^2+ channel. Briefly: T-type calcium channel inhibitory effect (whole-cell patch clamp, hippocampal CA1 pyramidal cells). It is filed as cell-based, Wistar rats. Conditions: rat hippocampal CA1 pyramidal cells; peak current after 1 minute of application. The procedure: T-Type Calcium Channel Inhibitory Effect
The hippocampal CA1 pyramidal cells were isolated from Wistar rats (female, 1 week old) in according to the method reported by Takahashi et al. [K. Takahashi et al.; J. Pharmacol. Exp. Ther., 256, 169 (1991)] and the T-type calcium current was measured under conditions of a fixed membrane potential using the whole-cell configuration of the patch clamp technique. The effects of the compounds were evaluated from the rate of suppression of the peak current after 1 minute of application using the concentration clamp method.
(In general: Patch clamp records ionic current or voltage across a cell membrane.)

Series [5] deals with Sodium channel. Kind of series: Inhibitory effect of veratrizine-induced sodium channel activity (synaptozome membrane potential, Rhodamine 6G). The class given is biochemical, Wistar rats. Particulars: compound 0.1 μM; rat brain synaptozomes, veratrizine-induced depolarization. The source says: Inhibitory Effect of Veratrizine-induced Sodium Channel Activity

T1 sequence (P61169 whole entry): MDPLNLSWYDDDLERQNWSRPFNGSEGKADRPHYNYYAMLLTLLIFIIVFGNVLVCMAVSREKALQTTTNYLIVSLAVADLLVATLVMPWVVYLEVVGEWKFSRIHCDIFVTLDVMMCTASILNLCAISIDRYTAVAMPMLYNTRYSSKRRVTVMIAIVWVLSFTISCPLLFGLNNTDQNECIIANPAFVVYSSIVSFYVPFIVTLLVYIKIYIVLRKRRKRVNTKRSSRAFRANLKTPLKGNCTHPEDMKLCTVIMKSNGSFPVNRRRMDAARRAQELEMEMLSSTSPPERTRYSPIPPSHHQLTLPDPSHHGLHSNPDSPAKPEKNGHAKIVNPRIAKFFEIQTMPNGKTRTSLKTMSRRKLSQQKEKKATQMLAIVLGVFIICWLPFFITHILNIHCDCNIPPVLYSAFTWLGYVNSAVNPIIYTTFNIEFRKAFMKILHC

Consider `Nc1cc(Cl)c(OC[C@@H](O)CN2CCC(c3ccc(Oc4ccccc4)cc3)CC2)c(Cl)c1` [Compound 51, (2S)-1-[(4-amino-2,6-dichloro)phenoxy]-3-[4-(4-phenoxyphenyl)piperidin-1-yl]-2-propanol], for which, in series [1], the inhibition in vivo at 10 mg/kg is 74%.
For orientation: LD50 means the dose at which mortality reaches 50%. Low readings indicate greater toxicity, high ones lower toxicity. The IC50 is the midpoint of a concentration-inhibition curve. As to `Cc1cc(OC[C@@H](O)CN2CCN(c3ccc(Cc4ccc(F)cc4)cc3)CC2)c(C)c(C)c1N` [Compound 28, (2S)-1-[(4-amino-2,3,5-trimethyl)phenoxy]-3-[4-(4-(4-fluorophenyl)methylphenyl)piperazin-1-yl]-2-propanol], the LD50 at 24 h in series [2] came out at 47.3 mg/kg. The IC50 was 12 µM in series [3] and 3 µM in series [4]. In addition, the inhibition in vivo at 10 mg/kg in series [1] was determined as 76%.
As to `Cc1cc(OC[C@@H](O)CN2CCC(c3ccc(Oc4ccccc4)cc3)CC2)c(C)cc1N` [Compound 32], the inhibition in vivo at 10 mg/kg in series [1] turned out to be 70%.
Turning to `COc1cc(Cl)c(N)cc1OC[C@@H](O)CN1CCC(c2ccc(Oc3ccccc3)cc2)CC1` [Compound 49, (2S)-1-[(5-amino-4-chloro-2-methoxy)phenoxy]-3-[4-(4-phenoxyphenyl)piperidin-1-yl]-2-propanol], the “Anti-veratrizine effect (inhibiting rate %)” value in series [5] turned out to be 15.1%. The inhibition in vivo at 10 mg/kg in series [1] stood at 42%.
`COc1ccc(N)cc1OC[C@@H](O)CN1CCC(c2ccc(OC3CCCC3)cc2)CC1` [Compound 45]: the inhibition in vivo at 10 mg/kg in series [1] is 44%.
Regarding `Cc1cc(C)c(OC[C@@H](O)CN2CCC(c3ccc(Cc4ccc(F)cc4)cc3)CC2)c(N)c1` [Compound 47, (2S)-1-[(2-amino-4,6-dimethyl)phenoxy]-3-[4-(4-(4-fluorophenyl)methylphenyl)piperidin-1-yl]-2-propanol], in series [1], the inhibition in vivo at 10 mg/kg amounted to 56%.
As to `Cc1cc(C)c(OC[C@@H](O)CN2CCN(c3ccc(Cc4ccc(F)cc4)cc3)CC2)c(N)c1` [Compound 48, (2S)-1-[(2-amino-4,6-dimethyl)phenoxy]-3-[4-(4-(4-fluorophenyl)methylphenyl)piperazin-1-yl]-2-propanol], the inhibition in vivo at 10 mg/kg in series [1] amounted to 70%.
On the same count and under the same terms, the value for `COc1ccc(N)cc1OC[C@@H](O)CN1CCN(c2ccc(Cc3ccc(F)cc3)cc2)CC1` [Compound 44, (2S)-1-[(5-amino-2-methoxy)phenoxy]-3-[4-(4-(4-fluorophenyl)methylphenyl)piperazin-1-yl]-2-propanol] was 80%.
For `COc1ccc(N)cc1OC[C@@H](O)CN1CCC(c2ccc(Cc3ccc(F)cc3)cc2)CC1` [Compound 43, (2S)-1-[(5-amino-2-methoxy)phenoxy]-3-[4-(4-(4-fluorophenyl)methylphenyl)piperidin-1-yl]-2-propanol], the “Anti-veratrizine effect (inhibiting rate %)” value in series [5] is recorded as 21%. For the same compound, the inhibition in vivo at 10 mg/kg in series [1] is 30%.
Turning to `COc1ccc(NC[C@@H](O)CN2CCC(c3ccc(Oc4ccccc4)cc3)CC2)c(C)c1` [Compound 56, (2R)-1-[4-(4-phenoxyphenyl)piperidin-1-yl]-3-[(4-methoxy-2-methyl)phenylamino]-2-propanol], the “Antiseizure effect (suppression rate %)” value in series [1] came out at 64%.
In the case of `Cc1cc(OC[C@@H](O)CN2CCC(c3ccc(Cc4ccc(F)cc4)cc3)CC2)c(C)cc1N` [Compound 33, (2S)-1-[(4-amino-2,5-dimethyl)phenoxy]-3-[4-(4-(4-fluorophenyl)methylphenyl)piperidin-1-yl]-2-propanol], in series [1], the inhibition in vivo at 10 mg/kg was found to be 78%.
With `COc1ccc(N)cc1OC[C@@H](O)CN1CCC(c2ccc(Oc3ccc(F)cc3)cc2)CC1` [Compound 42, (2S)-1-[(5-amino-2-methoxy)phenoxy]-3-[4-(4-(4-fluorophenoxy)phenyl)piperidin-1-yl]-2-propanol], in series [5], the “Anti-veratrizine effect (inhibiting rate %)” value is reported as 10.3%. For the same compound, in series [1], the inhibition in vivo at 10 mg/kg is 50%.
Turning to `COc1ccc(NCC(O)CN2CCN(c3ccc(Cc4ccc(F)cc4)cc3)CC2)c(C)c1` (centres unmarked) [Compound 55], the inhibition in vivo at 10 mg/kg in series [1] was 70%.
Take `Cc1c(N)ccc(OC[C@@H](O)CN2CCC(c3ccc(Cc4ccc(F)cc4)cc3)CC2)c1C` [Compound 36, (2S)-1-[(4-amino-2,3-dimethyl)phenoxy]-3-[4-(4-(4-fluorophenyl)methylphenyl)piperidin-1-yl]-2-propanol]: in series [1], the inhibition in vivo at 10 mg/kg is 68%.
Turning to `Cc1c(N)ccc(OC[C@@H](O)CN2CCC(c3ccc(Oc4ccccc4)cc3)CC2)c1C` [Compound 35, (2S)-1-[(4-amino-2,3-dimethyl)phenoxy]-3-[4-(4-phenoxyphenyl)piperidin-1-yl]-2-propanol], the inhibition in vivo at 10 mg/kg in series [1] stood at 74%.
On to `Cc1cc(OC[C@@H](O)CN2CCC(c3ccc(Oc4ccccc4)cc3)CC2)c(C)c(C)c1N` [Compound 26, (2S)-1-[(4-amino-2,3,5-trimethyl)phenoxy]-3-[4-(4-phenoxyphenyl)piperidin-1-yl]-2-propanol], for which, in series [2], the LD50 at 24 h was found to be 41 mg/kg. Also, the 50% inhibitory concentration (IC50) was determined as 5.6 µM in series [3] and 3.4 µM in series [4]. Also, the inhibition in vivo at 10 mg/kg in series [1] worked out at 74%.
Consider `Cc1cc(N)c(C)c(C)c1OC[C@@H](O)CN1CCC(c2ccc(Oc3ccccc3)cc2)CC1` [Compound 38, (2S)-1-[(4-amino-2,3,6-trimethyl)phenoxy]-3-[4-(4-phenoxyphenyl)piperidin-1-yl]-2-propanol], for which, in series [1], the inhibition in vivo at 10 mg/kg came out at 92%.
`COc1ccc(NCC(O)CN2CCC(c3ccc(Oc4ccccc4)cc3)CC2)c(C)c1` (centres unmarked) [Compound 53, 1-[4-(4-phenoxyphenyl)piperidin-1-yl]-3-[(4-methoxy-2-methyl)phenylamino]-2-propanol]: the results for the half-maximal inhibitory concentration (IC50) in series [3] and in series [4] were 11 µM and 2.2 µM, respectively. In addition, the “Antiseizure effect (suppression rate %)” value in series [1] is given as 46%.
In the case of `Cc1cc(OC[C@@H](O)CN2CCN(c3ccc(Cc4ccc(F)cc4)cc3)CC2)c(C)cc1N` [Compound 34], the inhibition in vivo at 10 mg/kg in series [1] came out at 74%.
Turning to `Cc1c(C)c(NCC(O)CN2CCC(c3ccc(Oc4ccccc4)cc3)CC2)c(C)c(C)c1N` (centres unmarked) [Compound 58, 3-[(4-amino-2,3,5,6-tetramethyl)phenylamino]-1-[4-(4-phenoxyphenyl)piperidin-1-yl]-2-propanol], in series [1], the inhibition in vivo at 10 mg/kg came out at 68%.
Same read-out and setting: the value for `Cc1cc(OC[C@@H](O)CN2CCC(c3ccc(OC4CCCC4)cc3)CC2)c(C)c(C)c1N` [Compound 31, (2S)-1-[(4-amino-2,3,5-trimethyl)phenoxy]-3-[4-(4-cyclopentyloxyphenyl)piperidin-1-yl]-2-propanol] was 74%; that for `Cc1cc(OC[C@@H](O)CN2CCC(O)(c3ccc(-c4ccccc4)c(F)c3)CC2)c(C)c(C)c1N` [Compound 30] was 44%.
`Cc1cc(N)c(C)c(C)c1OC[C@@H](O)CN1CCN(c2ccc(Cc3ccc(F)cc3)cc2)CC1` [Compound 40, (2S)-1-[(4-amino-2,3,6-trimethyl)phenoxy]-3-[4-(4-(4-fluorophenyl)methylphenyl)piperazin-1-yl]-2-propanol] came in with an LD50 at 24 h in series [2] of 49.1 mg/kg. This compound also yielded a half-inhibitory concentration (IC50) in series [3] of 12 µM. Also, in series [1], the inhibition in vivo at 10 mg/kg was determined as 80%.
Regarding `COc1ccc(NCC(O)CN2CCC(c3ccc(Cc4ccc(F)cc4)cc3)CC2)c(C)c1` (centres unmarked) [Compound 54], in series [1], the inhibition in vivo at 10 mg/kg was 58%.
With `Nc1ccc(OC[C@@H](O)CN2CCC(c3ccc(Oc4ccccc4)cc3)CC2)cc1` [Compound 25, (2S)-1-(4-aminophenoxy)-3-[4-(4-phenoxyphenyl)piperidin-1-yl]-2-propanol], the “Anti-veratrizine effect (inhibiting rate %)” value in series [5] worked out at 21%. The inhibition in vivo at 10 mg/kg in series [1] was determined as 58%.
Take `Cc1cc(C)c(OC[C@@H](O)CN2CCC(c3ccc(Oc4ccccc4)cc3)CC2)c(N)c1` [Compound 46, (2S)-1-[(2-amino-4,6-dimethyl)phenoxy]-3-[4-(4-phenoxyphenyl)piperidin-1-yl]-2-propanol]: in series [1], the inhibition in vivo at 10 mg/kg was found to be 88%.
Consider `COc1ccc(NC[C@H](O)CN2CCC(c3ccc(Oc4ccccc4)cc3)CC2)c(C)c1` [Compound 57], for which the “Antiseizure effect (suppression rate %)” value in series [1] is 68%.
